Results as given in US20260198495A1, “BINARY INSECTICIDE COMPOSITION AND USE THEREOF” (SHENYANG SINOCHEM AGROCHEMICALS R & D CO., LTD., priority 2022, published 2026).
≈ marks a conversion by molar mass, not a printed value. Where two headings read alike, the source gives them in different places.

Key:
Type in all cases: in vivo
[1] = system: Sitobion miscanthi (Fabricius); assay: whole plant or invertebrate; details: for Measured mortality rate: single pesticide, 48 hours
Method: Test target: Sitobion miscanthi (Fabricius).
(§1) Preparation of the pesticide solution: according to different test requirements, the test samples were accurately weighed respectively with an electronic analytical balance. The technical pesticides were dissolved in acetone, and then diluted with 0.1% Tween 80 water into a series of pesticide solutions with a certain concentration gradient according to the experimental design dosage.
Experimental method: first, wheat seedlings with uniform and consistent Sitobion miscanthi (Fabricius) were selected, with about 30-40 insects on each pot of wheat. Then, they were evenly sprayed with the pesticide solution in the order from low dosage to high dosage according to the experimental design, with 2.5 mL for each pot and 3 replicates for each treatment. In addition, a blank control CK was set up.
(§2) The treated test materials were placed in an observation room, and the temperature, humidity and illumination of the observation room could be adjusted as needed. The number of dead and alive insects was investigated 48 hours later, and the corrected mortality rate was calculated using the Abbott's formula.
The synergism of the mixture was evaluated by the Bliss method. According to the concept of independent joint action he proposed, Bliss believes that the theoretical mortality rate P when insecticides are used in combination can be calculated by the following formula: […]
Pm is the measured mortality rate (%) of the target when the first active ingredient is at a concentration of m; and Pn is the measured mortality rate (%) of the target when the second active ingredient is used at a concentration of n.
(§3) If the actual mortality rate of the target after the two active ingredients are mixed at a certain concentration is greater than theoretical mortality rate P, it is determined that the two active ingredients have a synergistic effect when used in combination at the set concentration, and otherwise, they have an antagonistic effect.

[2] = system: 3rd-instar larvae of Hyphantria cunea; assay: Joint toxicity of I-72 + organophosphorus insecticides, poplar leaf dipping, Example 20, Table 20; details: foliar, A = compound I-72, B = phoxim, poplar leaf dipping, 72 hours, read-out: LC50
Excerpt: Test target: 3rd-instar larvae of Hyphantria cunea, a sensitive strain reared indoors.
Experimental method: first, fresh and tender poplar leaves were selected, cut into small sections of 5 cm, and dipped in the prepared pesticide solution for 10 s in the order from low dosage to high dosage according to the experimental design. After natural air-drying in the shade, they were placed in a 9-cm-diameter Petri dish with filter paper, and uniform and healthy test insects were introduced, with 10 insects for each treatment and 3 replicates for each treatment. In addition, a blank control was set up.
The treated test materials were placed in an observation room, and the temperature, humidity and illumination of the observation room could be adjusted as needed. The number of dead and live insects was investigated 72 hours later.

[3] = system: Aphis gossypii Glover nymphs; assay: Joint toxicity of I-72 + organophosphorus insecticides, cotton leaf spraying, Example 17, Table 17; details: 48 h
Method: Test target: Aphis gossypii Glover nymphs, a sensitive strain reared indoors.
as §1
Experimental method: first, cotton leaves with uniform and consistent Aphis gossypii were selected, with about 20 insects on each leaf. Then, they were evenly sprayed with the pesticide solution in the order from low dosage to high dosage according to the experimental design, with 1.5 mL for each leaf and 3 replicates for each treatment. In addition, a blank control was set up.
(§4) The treated test materials were placed in an observation room, and the temperature, humidity and illumination of the observation room could be adjusted as needed. The number of dead and live insects was investigated 48 hours later. The corrected mortality rate was calculated using the Abbott's formula, and statistical analysis was performed with the DPS data processing software to obtain the toxicity regression equation, LC50 value and 95% confidence limit of each single test pesticide and each mixture of different ratios. Then, the co-toxicity coefficient of each ratio was calculated using the Sun Y-P method to evaluate the mixing effect (the same as in Example 1).

[4] = system: 3rd-instar larvae of Pyrausta nubilalis Hubern; assay: Synergism assay (Bliss) of I-72 + cartap, monosultap, bisultap, Example 5, Table 5; details: 72 h
Method: Test subject: 3rd-instar larvae of Pyrausta nubilalis Hubern, a sensitive strain reared indoors.
(§5) Test conditions: temperature: 24-26° C., humidity: RH 60%, and illumination: L:D=14:10
Preparation method: the test pesticides were accurately weighed respectively with an electronic analytical balance. After the two technical materials were respectively added into an appropriate amount of solvent and completely dissolved, the stock solution of the required concentration was prepared with water containing 0.1% Tween 80. The stock solutions of the two active ingredients were mixed in a certain ratio to prepare a mixed solution, which was then diluted respectively into a series of pesticide solutions with a certain concentration gradient according to the experimental design dosage.
Experimental method: the artificial diet-pesticide film method was adopted. A standard clean 24-well culture plate was selected. 1 ml of artificial diet was added to each well. After the diet cooled and solidified, a quantitative amount of a pesticide solution was added to the culture plate using a continuous sampler, and then it was air-dried naturally in the shade. The standard test insects were introduced, with 1 insect in each well, a total of 48 insects. The treated test insects were placed in an observation room under certain conditions. The reaction of the test insects was regularly observed, and the number of dead and live insects was investigated 72 h later.
The evaluation method adopted was the Bliss method. This method is applicable to the qualitative screening of insecticidal compositions. According to the concept of independent joint action he proposed, Bliss believes that the theoretical mortality rate P when insecticides are used in combination can be calculated by the following formula: […]
Pm is the mortality rate (%) of the target when the first active ingredient is at a concentration of m; and Pn is the mortality rate (%) of the target when the second active ingredient is at a concentration of n.
as §3

[5] = system: early 2nd-instar grubs of Holotrichia diomphalia Bates; assay: whole plant or invertebrate
Method: Test target: early 2nd-instar grubs of Holotrichia diomphalia Bates.
as §5, §1
Experimental method: the activity against Holotrichia diomphalia Bates was determined by the insect-dipping method. The early 2nd-instar grubs of Holotrichia diomphalia Bates were selected. The target insects were dipped into the pesticide solution for 10 s and then taken out. Excess pesticide solution was absorbed with filter paper. […] A treatment without the pesticide was set as the blank control.
The test insects were transferred to a multi-well culture plate with fresh potato pieces and placed in an observation room, and the temperature, humidity and illumination of the observation room could be adjusted as needed. The number of dead and live insects was investigated 72 hours later. The corrected mortality rate was calculated using the Abbott's formula, and statistical analysis was performed with the DPS data processing software to obtain the toxicity regression equation and LC50 value of each single test pesticide and each mixture of different ratios.

[6] = system: 3rd-instar larvae of Ostrinia furnacalis Guenee; assay: Synergism screening (Bliss) of I-72 + ecdysteroid and juvenile hormone insecticides, Example 51, Table 51; details: for mortality at 0.04 µg/mL / mortality at 2 µg/mL / mortality at 100 µg/mL / mortality at 0.1 µg/mL / mortality at 40 µg/mL: Ostrinia furnacalis, 72 h, read-out: Measured mortality rate; for Measured mortality rate: single pesticide, 72 hours
Method: Test target: 3rd-instar larvae of Ostrinia furnacalis Guenee.
as §1
(§6) Experimental method: first, tender corn stems were selected and dipped in the prepared pesticide solution for 10 s in the order from low dosage to high dosage according to the experimental design. After natural air-drying in the shade, they were placed in a 9-cm-diameter Petri dish with filter paper, and uniform and healthy test insects were introduced, with 10 insects for each treatment and 3 replicates for each treatment. In addition, a blank control (CK) was set up.
as §2, with “72” for “48”
The synergism of the mixture was evaluated by adopting the Bliss method, as in Example 5.

[7] = system: Frankliniella occidentalis Pergande; assay: Joint toxicity of I-72 + organophosphorus insecticides, leaf dipping, Example 14, Table 14; details: in Phaseolus vulgaris, foliar, 48 h
Excerpt: Test target: Frankliniella occidentalis Pergande, a sensitive strain reared indoors.
Experimental method: first, kidney bean leaves were selected and dipped in the prepared pesticide solution for 10 s in the order from low dosage to high dosage according to the experimental design. After natural air-drying in the shade, they were placed in a 9-cm-diameter Petri dish with filter paper, and uniform and healthy test insects were introduced, with about 20 insects for each treatment and 3 replicates for each treatment. In addition, a blank control was set up.

Rhizoctonia solani = assay: Control efficacy against Rhizoctonia solani, rice seedling potting method, Example 89, Table 89; details: rice seedlings, foliar spraying
Method: Control efficacy of the composition containing the compound I-72 against Rhizoctonia solani
Test target: Rhizoctonia solani, a sensitive strain cultured indoors.
The trial adopted the seedling potting method. Test crop: rice. Experimental method: the rice seedlings were cultured to the 2-leaf stage in the greenhouse of the experimental materials. Foliar spraying treatment was performed on the crop sprayer according to the designed dosage. The test target strain was inoculated 24 hours after the pesticide treatment. All the inoculated experimental materials were cultured in a phytotron. […] The disease grading and the calculation method of the control efficacy both referred to the agricultural industry standards of the People's Republic of China.

[8] = system: 3rd-instar larvae of Chilo suppressalis (Walker); assay: Joint toxicity of I-72 + organophosphorus insecticides, rice seedling dipping, Example 15, Table 15; details: 3rd-instar larvae, rice seedling dipping, 48 h, A = compound I-72, B = diazinon, read-out: LC50
Method: Test target: 3rd-instar larvae of Chilo suppressalis (Walker), a sensitive strain reared indoors.
as §1
as §6, with “first, tender and fresh rice seedlings were selected” for “first, tender corn stems were selected”, “they were cut into small sections of 5 cm, placed in” for “they were placed in”, “blank control was set” for “blank control (CK) was set”
as §4

[9] = Ostrinia nubilalis, read-out: Mortality rate (%)
[10] = Sitobion miscanthi, in Triticum aestivum, 48 h, read-out: Measured mortality rate

CC1=CC(=O)CC(C)(C)[C@@]1(O)/C=C/C(C)=C/C(=O)O [S-abscisic acid]
Measured mortality rate ([1]; 1 mg/L): 7.9% | Measured mortality rate ([1]; 10 mg/L): 8.3% | Measured mortality rate ([1]; 100 mg/L): 10.3%

CCOP(=S)(OCC)O/N=C(\C#N)c1ccccc1 [phoxim]
LC50 [2]: 10.1 µg/mL | LC50 ([3]; nymphs, cotton leaf spraying, A = compound I-72, B = phoxim, read-out: LC50): 31.6 µg/mL

CN(C)C(CSS(=O)(=O)[O-])CSS(=O)(=O)[O-].[Na+].[Na+] [Bisultap, bisultap]
Mortality rate (%) ([4]; single agent 0.1 mg/L): 0% | Mortality rate (%) ([4]; single agent 1 mg/L): 4.17% | Mortality rate (%) ([4]; single agent 5 mg/L): 10.42% | Mortality rate (%) ([4]; single agent 10 mg/L): 22.92%

CN(C)C(CSC(N)=O)CSC(N)=O [Cartap, cartap]
mortality at 0.1 µg/mL [4, 9]: 2.08% | mortality at 1 µg/mL [4, 9]: 10.4% | mortality at 5 µg/mL [4, 9]: 20.8% | mortality at 10 µg/mL [4, 9]: 43.8%

O=P(O)(O)CCCl [Ethephon]
mortality at 0.2 µg/mL [1, 10]: 7% | mortality at 10 µg/mL [1, 10]: 8.8% | mortality at 500 µg/mL [1, 10]: 15%

CC1COC(Cn2cncn2)(c2ccc(Oc3ccc(Cl)cc3)cc2Cl)O1 (centres unmarked) [difenoconazole]
LC50 ([5]; Holotrichia diomphalia, 72 h): 500 µg/mL (≈ 1230 µM)

CC(C)(C)[C@@H](O)[C@@H](Cc1ccc(Cl)cc1)n1cncn1 (racemic) [Paclobutrazol]
mortality at 1 µg/mL [1, 10]: 6.8% | mortality at 10 µg/mL [1, 10]: 7.8% | mortality at 100 µg/mL [1, 10]: 11.3%

COC(C)(C)CCC[C@H](C)C/C=C/C(C)=C/C(=O)OC(C)C (racemic) [Methoprene]
mortality at 0.04 µg/mL [6]: 10% | mortality at 2 µg/mL [6]: 17.9% | mortality at 100 µg/mL [6]: 25%

CCOC(=O)CC(SP(=S)(OC)OC)C(=O)OCC (centres unmarked) [malathion]
LC50 [7]: 52.3 µg/mL

CN(C)C(CSS(=O)(=O)[O-])CSS(=O)(=O)O.[Na+] [Monosultap, monosultap]
Mortality rate (%) ([4]; single agent 0.1 mg/L): 0% | Mortality rate (%) ([4]; single agent 1 mg/L): 6.25% | Mortality rate (%) ([4]; single agent 5 mg/L): 18.75% | Mortality rate (%) ([4]; single agent 10 mg/L): 29.17%

CC(C)[C@H](C)[C@@H](O)[C@H](O)[C@@H](C)[C@H]1CC[C@H]2[C@@H]3COC(=O)[C@H]4C[C@H](O)[C@H](O)C[C@]4(C)[C@H]3CC[C@]12C [Brassinolide]
Measured mortality rate ([1]; 0.5 mg/L): 6.7% | Measured mortality rate ([1]; 10 mg/L): 8.8% | Measured mortality rate ([1]; 200 mg/L): 12.6%

CC(C)(C)C(O)(CCc1ccc(Cl)cc1)Cn1cncn1 (centres unmarked) [tebuconazole]
LC50 ([5]; Holotrichia diomphalia, 72 h): 477 µg/mL (≈ 1550 µM)

CCCCc1c(C)c2ccc(OCc3ccccc3/C(=C\OC)C(=O)OC)cc2oc1=O [coumoxystrobin]
Control efficacy (Rhizoctonia solani; 5 mg/L, A = compound I-72, B = coumoxystrobin): 44.3% | Control efficacy (Rhizoctonia solani; 10 mg/L, A = compound I-72, B = coumoxystrobin): 61.9% | Control efficacy (Rhizoctonia solani; 20 mg/L, A = compound I-72, B = coumoxystrobin): 81.5%

CC(COc1ccc(Oc2ccccc2)cc1)Oc1ccccn1 (centres unmarked) [Pyriproxyfen]
mortality at 0.04 µg/mL [6]: 7.1% | mortality at 2 µg/mL [6]: 9.7% | mortality at 100 µg/mL [6]: 16.1%

Cc1cc(C)cc(C(=O)N(NC(=O)c2ccc3c(c2C)OC(C)C3)C(C)(C)C)c1 (centres unmarked) [Fufenozide]
Measured mortality rate ([6]; 0.1 mg/L): 9.4% | Measured mortality rate ([6]; 2 mg/L): 15.4% | Measured mortality rate ([6]; 40 mg/L): 41.9%

COc1cccc(C(=O)NN(C(=O)c2cc(C)cc(C)c2)C(C)(C)C)c1C [Methoxyfenozide]
mortality at 0.1 µg/mL [6]: 11.1% | mortality at 2 µg/mL [6]: 18.8% | mortality at 40 µg/mL [6]: 50%

CO/C=C(/C(=O)OC)c1ccccc1Oc1cc(Oc2ccccc2C#N)ncn1 [azoxystrobin]
LC50 ([5]; A = compound I-72, B = azoxystrobin, insect-dipping, 72 hours): 473.5404 µg/mL (≈ 1170 µM)

Nc1nc(N)nc(NC2CC2)n1 [Cyromazine]
mortality at 0.1 µg/mL [6]: 6.9% | mortality at 2 µg/mL [6]: 10.7% | mortality at 40 µg/mL [6]: 21.2%

CCOP(=S)(OCC)Oc1cc(C)nc(C(C)C)n1 [diazinon]
LC50 [8]: 6.22 µg/mL | LC50 [3]: 20.5 µg/mL

CO/C=C(/C(=O)OC)c1ccccc1COc1cc(-c2ccc(Cl)cc2)nn1C [pyraoxystrobin]
Control efficacy (Rhizoctonia solani; 5 mg/L, A = compound I-72, B = pyraoxystrobin): 42.8% | Control efficacy (Rhizoctonia solani; 10 mg/L, A = compound I-72, B = pyraoxystrobin): 71.5% | Control efficacy (Rhizoctonia solani; 20 mg/L, A = compound I-72, B = pyraoxystrobin): 82.4%

C=C1C[C@]23C[C@@]1(O)CC[C@H]2[C@@]12C=C[C@H](O)[C@@](C)(C(=O)O1)[C@H]2[C@@H]3C(=O)O [Gibberellic acid]
mortality at 0.5 µg/mL [1, 10]: 5.9% | mortality at 10 µg/mL [1, 10]: 10% | mortality at 200 µg/mL [1, 10]: 12.5%
